“And” between values parts separate entries of the source, which are not always exact repeats. Equal entries are not always repeated. Where two headings read alike, the source gives them in different places. Where a SMILES comes first, the peptide text is derived from it. Where no end group is shown, it is not given here.
Columns and labels:
S. aureus (ATCC 25923) = conditions: for MIC in PB: 10 mM potassium phosphate buffer, pH 7.2; for MIC in PBS: phosphate-buffered saline
[1] = system: panel of enveloped viruses (DENV, JEV, YFV, CHIKV and others)
JEV 14-14-2 = conditions: for EC50: 0 h
DENV-2 New Guinea C [2] = system: DENV-2 New Guinea C
in vitro = conditions: African green monkey
YFV 17D [3] = system: YFV 17D
DENV-4 H241 [4] = conditions: for Therapeutic Index (CC50/EC50): -4 H241
CHIKV 181/25 = conditions: for EC50: 0 h
DENV-1 PRS41393 [5] = conditions: for Therapeutic Index (CC50/EC50): -1 PRS41393
DENV-3 H87 [6] = conditions: for Therapeutic Index (CC50/EC50): -3 H87
Vero cells = conditions: African green monkey
VEEV TC-83 = conditions: 0 h
LACV H44-71017 = assay: organism not typed; format: cell-based, LaCrosse encephalitis virus; conditions: Vero
RVFV MP12 = assay: microbe, parasite or virus in culture; conditions: Rift Valley fever virus, Vero, 0 h
DENV-3 H87 [7] = assay: microbe, parasite or virus in culture; conditions: Dengue virus, DENV3, Vero, 0 h
YFV 17D [8] = assay: microbe, parasite or virus in culture; conditions: Yellow fever virus, Vero
DENV-2 New Guinea C [9] = assay: microbe, parasite or virus in culture; conditions: Dengue virus, DENV2, Vero
DENV-4 H241 [10] = assay: microbe, parasite or virus in culture; conditions: Dengue virus, DENV4, Vero
JUNV Candid #1 = assay: microbe, parasite or virus in culture; conditions: Mammarenavirus juninense, Vero
DENV-1 PRS41393 [11] = assay: microbe, parasite or virus in culture; conditions: Dengue virus, DENV1, Vero
[12] = read-out: EC50 Values for the Indicated Virus

AGSWLRDILTLLQSAL [TSG009]
MHC (human erythrocyte cells): 1.5 µM
MIC in PB (S. aureus (ATCC 25923)): 1.5 µM
MIC in PBS (S. aureus (ATCC 25923)): 1.5 µM

CC(C)C[C@H](NC(=O)[C@H](CCCCN)NC(=O)[C@H](CO)NC(=O)[C@H](CCC(N)=O)NC(=O)[C@H](CC(C)C)NC(=O)[C@H](Cc1c[nH]c2ccccc12)NC(=O)[C@@H](NC(=O)[C@H](Cc1c[nH]c2ccccc12)NC(=O)[C@@H](NC(=O)[C@H](CC(=O)O)NC(=O)[C@H](CCCNC(=N)N)NC(=O)[C@H](CC(C)C)NC(=O)[C@H](Cc1c[nH]c2ccccc12)NC(=O)[C@H](CO)NC(=O)[C@H](CO)NC(=O)CNC(=O)CCOCCOCCOCCOCCOCCOCCOCCOCCOCCOCCOCCOCCNC(=O)CCOCCOCCOCCOCCOCCOCCOCCOCCOCCOCCOCCOCCN)C(C)C)[C@@H](C)O)C(N)=O [TSGX2X] (HELM PEPTIDE1{[NCCOCCOCCOCCOCCOCCOCCOCCOCCOCCOCCOCCOCCC(=O)[*:2]].[O=C(CCOCCOCCOCCOCCOCCOCCOCCOCCOCCOCCOCCOCCN[*:1])[*:2]].G.S.S.W.L.R.D.V.W.T.W.L.Q.S.K.L.[am]}$$$$V2.0)
antiviral activities of pegylated peptides [1]: reduced
antiviral activity of pegylated peptides [1]: preserve strong antiviral activity
efficacy against infection [1]: effective
EC50 (Marburg virus (MARV)): 44.3 µM
EC50 (Marburg virus (MARV); [12]): 44.3 µM
EC50 (Ebola virus (EBOV)): 29.9 µM
EC50 (Ebola virus (EBOV); [12]): 29.9 µM

CC[C@H](C)[C@H](NC(=O)[C@H](Cc1c[nH]c2ccccc12)NC(=O)[C@H](CC(=O)O)NC(=O)[C@H](Cc1c[nH]c2ccccc12)NC(=O)[C@@H](NC(=O)[C@H](CC(=O)O)NC(=O)[C@H](CCCNC(=N)N)NC(=O)[C@H](CC(C)C)NC(=O)[C@H](Cc1c[nH]c2ccccc12)NC(=O)[C@H](CO)NC(=O)CNC(=O)[C@@H](N)CO)C(C)C)C(=O)N[C@@H](CS)C(=O)N[C@H](C(=O)N[C@H](C(=O)N[C@@H](CC(C)C)C(=O)N[C@H](C(=O)N[C@@H](CC(=O)O)C(=O)N[C@@H](Cc1ccccc1)C(=O)N[C@@H](CCCCN)C(=O)N[C@H](C(=O)N[C@@H](Cc1c[nH]c2ccccc12)C(=O)N[C@@H](CC(C)C)C(=O)N[C@@H](CCC(N)=O)C(=O)N[C@@H](CO)C(=O)N[C@@H](CCCCN)C(=O)N[C@@H](CC(C)C)C(=O)O)[C@@H](C)O)[C@@H](C)O)C(C)C)[C@@H](C)O [AH, reference compound]
Therapeutic Index (CC50/EC50) (JEV 14-14-2): 236.04
Therapeutic Index (CC50/EC50) (DENV-2 New Guinea C [2]; -2 New Guinea C): 708.11
EC50 (in vitro): 127 µM
CC50 (in vitro): 192 µM
MHC (human erythrocyte cells): 50 µM
Therapeutic Index (CC50/EC50) (YFV 17D [3]): 5.87
Therapeutic Index (CC50/EC50) (DENV-4 H241 [4]): 36.84
Therapeutic Index (CC50/EC50) (CHIKV 181/25): 21.21
Therapeutic Index (CC50/EC50) (DENV-1 PRS41393 [5]): 49.98
Therapeutic Index (CC50/EC50) (DENV-3 H87 [6]): 17.65

GSSWLRDVWTWLQSAL [TSG003]
EC50 (JEV 14-14-2): 16.3 µM
Therapeutic Index (CC50/EC50) (DENV-2 New Guinea C [2]; -2 New Guinea C): 22.33
CC50 (in vitro): 24.5 µM
MHC (human erythrocyte cells): 50 µM
Therapeutic Index (CC50/EC50) (YFV 17D [3]): 18.05
Therapeutic Index (CC50/EC50) (DENV-4 H241 [4]): 20.23
CC50 (Vero cells): 38.6 µM
Therapeutic Index (CC50/EC50) (CHIKV 181/25): 17.72
Therapeutic Index (CC50/EC50) (DENV-1 PRS41393 [5]): 11.46
EC50 (DENV-1 PRS41393 [5]; -1 PRS41393, 0 h): 6.12 µM
MIC in PB (S. aureus (ATCC 25923)): 1.5 µM
MIC in PBS (S. aureus (ATCC 25923)): 1.5 µM
EC50 (VEEV TC-83): > 12.5 µM
Therapeutic Index (CC50/EC50) (DENV-3 H87 [6]): 22.33

CC(C)C[C@H](NC(=O)[C@H](CCCCN)NC(=O)[C@H](CO)NC(=O)[C@H](CCC(N)=O)NC(=O)[C@H](CC(C)C)NC(=O)[C@H](Cc1c[nH]c2ccccc12)NC(=O)[C@@H](NC(=O)[C@H](Cc1c[nH]c2ccccc12)NC(=O)[C@@H](NC(=O)[C@H](CC(=O)O)NC(=O)[C@H](CCCNC(=N)N)NC(=O)[C@H](CC(C)C)NC(=O)[C@H](Cc1c[nH]c2ccccc12)NC(=O)[C@H](CO)NC(=O)CNC(=O)[C@H](CO)NC(=O)CCOCCOCCOCCOCCOCCOCCOCCOCCOCCOCCOCCOCCNC(=O)CCOCCOCCOCCOCCOCCOCCOCCOCCOCCOCCOCCOCCN)C(C)C)[C@@H](C)O)C(N)=O [TSGX1X] (HELM PEPTIDE1{[NCCOCCOCCOCCOCCOCCOCCOCCOCCOCCOCCOCCOCCC(=O)[*:2]].[O=C(CCOCCOCCOCCOCCOCCOCCOCCOCCOCCOCCOCCOCCN[*:1])[*:2]].S.G.S.W.L.R.D.V.W.T.W.L.Q.S.K.L.[am]}$$$$V2.0)
EC50 (JEV 14-14-2): 1.27 µM
EC50 (DENV-2 New Guinea C [2]): 3.86 µM
EC50 (YFV 17D [3]): 22.4 µM
EC50 (DENV-4 H241 [4]): 3.54 µM
EC50 (CHIKV 181/25): 27.2 µM
antiviral activities of pegylated peptides [1]: reduced
antiviral activity of pegylated peptides [1]: preserve strong antiviral activity
efficacy against infection [1]: effective
EC50 (Marburg virus (MARV)): 14.3 µM
EC50 (Marburg virus (MARV); [12]): 14.3 µM
EC50 (Ebola virus (EBOV)): 13.5 µM
EC50 (Ebola virus (EBOV); [12]): 13.5 µM
EC50 (DENV-1 PRS41393 [5]): 4.98 µM
EC50 (DENV-3 H87 [6]): 2.28 µM

SWLRDIWDWICEVLSDFK [C5A, reference compound]
Therapeutic Index (CC50/EC50) (JEV 14-14-2): 61.68
Therapeutic Index (CC50/EC50) (DENV-2 New Guinea C [2]; -2 New Guinea C): 85.26
EC50 (in vitro): 29 µM
MHC (human erythrocyte cells): 13 µM
Therapeutic Index (CC50/EC50) (YFV 17D [3]): 99.97
Therapeutic Index (CC50/EC50) (DENV-4 H241 [4]): 22.13
EC50 (DENV-4 H241 [4]; -4 H241, 0 h): 1.65 µM
Therapeutic Index (CC50/EC50) (CHIKV 181/25): 9.38
Therapeutic Index (CC50/EC50) (DENV-1 PRS41393 [5]): 44.60
MIC in PBS (S. aureus (ATCC 25923)): >100 µM
Therapeutic Index (CC50/EC50) (DENV-3 H87 [6]): 15.02
EC50 (DENV-3 H87 [6]; -3 H87, 0 h): 3.86 µM

GSSWLRDVWTWLQSKL [TSG002]
Therapeutic Index (CC50/EC50) (JEV 14-14-2): 6.72
Therapeutic Index (CC50/EC50) (DENV-2 New Guinea C [2]; -2 New Guinea C): 9.60
EC50 (DENV-2 New Guinea C [2]; -2 New Guinea C, 0 h): 2.74 µM
MHC (human erythrocyte cells): 50 µM
Therapeutic Index (CC50/EC50) (YFV 17D [3]): 7.40
Therapeutic Index (CC50/EC50) (DENV-4 H241 [4]): 8.58
CC50 (Vero cells): 16.1 µM
Therapeutic Index (CC50/EC50) (CHIKV 181/25): 4.73
EC50 (CHIKV 181/25): 3.21 µM
EC50 (Marburg virus (MARV)): 0.922 µM
EC50 (Ebola virus (EBOV)): 1.01 µM
Therapeutic Index (CC50/EC50) (DENV-1 PRS41393 [5]): 10.41
MIC in PB (S. aureus (ATCC 25923)): 1.5 µM
MIC in PBS (S. aureus (ATCC 25923)): 1.5 µM
EC50 (VEEV TC-83): > 12.5 µM
Therapeutic Index (CC50/EC50) (DENV-3 H87 [6]): 6.09
EC50 (DENV-3 H87 [6]; -3 H87, 0 h): 5.09 µM

GSSWLRDIWTALQSWL [TSG006]
Therapeutic Index (CC50/EC50) (JEV 14-14-2): 10.71
Therapeutic Index (CC50/EC50) (DENV-2 New Guinea C [2]; -2 New Guinea C): 26.04
CC50 (in vitro): 14.9 µM
MHC (human erythrocyte cells): 3 µM
Therapeutic Index (CC50/EC50) (YFV 17D [3]): 22.09
Therapeutic Index (CC50/EC50) (DENV-4 H241 [4]): 11.63
EC50 (DENV-4 H241 [4]; -4 H241, 0 h): 2.11 µM
Therapeutic Index (CC50/EC50) (CHIKV 181/25): 5.07
Therapeutic Index (CC50/EC50) (DENV-1 PRS41393 [5]): 12.03
EC50 (DENV-1 PRS41393 [5]; -1 PRS41393, 0 h): 1.56 µM
MIC in PB (S. aureus (ATCC 25923)): 1.5 µM
MIC in PBS (S. aureus (ATCC 25923)): 1.5 µM
Therapeutic Index (CC50/EC50) (DENV-3 H87 [6]): 11.71
EC50 (DENV-3 H87 [6]; -3 H87, 0 h): 1.63 µM

NC(=O)c1ncn([C@@H]2O[C@H](CO)[C@@H](O)[C@H]2O)n1 [Ribavirin]
EC50 (LACV H44-71017): 161 µM
EC50 (LACV H44-71017; 0 h): 143 µM
EC50 (DENV-2 New Guinea C [2]): 203 µM and 185 µM
CC50 (in vitro): > 750 µM
EC50 (RVFV MP12): 140 µM
EC50 (YFV 17D [3]): 212 µM and 170 µM
EC50 (DENV-4 H241 [4]): 209 µM and 284 µM
CC50 (Vero cells): 577 µM
EC50 (DENV-3 H87 [7]): 176 µM
EC50 (YFV 17D [8]): 203 µM
EC50 (YFV 17D [8]; 0 h): 258 µM
EC50 (DENV-2 New Guinea C [9]): 267 µM
EC50 (DENV-2 New Guinea C [9]; 0 h): 360 µM
EC50 (DENV-4 H241 [10]): 253 µM
EC50 (DENV-4 H241 [10]; 0 h): 395 µM
EC50 (JUNV Candid #1): 73.2 µM
EC50 (JUNV Candid #1; 0 h): 63.7 µM
EC50 (DENV-1 PRS41393 [11]): 144 µM
EC50 (DENV-1 PRS41393 [11]; 0 h): 206 µM
